{"source": "patent US6737383B1", "about": "“Herbicidal oxadiazolidines” (priority 1999, dated 2004)", "key": {"purple nutsedge": {"system": "purple nutsedge", "assay": "Test B pre/postemergence purple nutsedge", "assay_type": "in vivo, Cyperus rotundus", "summary_of_the_method": "(§1)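 Herbicidal effect was estimated by eye on a ten-point control scale after plants spent twelve to sixteen days in a greenhouse following soil or foliar treatment. Foliar sprays targeted plants at one to four leaves; all doses were formulated in a non-phytotoxic solvent with surfactant.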"}, "giant foxtail": {"system": "giant foxtail", "assay": "Test B pre/postemergence giant foxtail", "assay_type": "in vivo, Setaria faberii", "summary_of_the_method": "as §1"}, "cocklebur": {"system": "cocklebur", "assay": "Test B pre/postemergence cocklebur", "assay_type": "in vivo, Xanthium strumarium", "summary_of_the_method": "as §1"}, "rice": {"system": "rice", "assay": "Test B flood test rice", "assay_type": "in vivo, Oryza sativa", "summary_of_the_method": "(§2)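 Plants were grown to the 2-leaf stage before treatment with test chemical, then held in a greenhouse for twelve to sixteen days. Injury was visually rated against untreated controls on a 0–10 scale, where 0 is no effect and 10 is complete control.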"}, "crabgrass": {"system": "crabgrass", "assay": "Test B pre/postemergence crabgrass", "assay_type": "in vivo, Digitaria sanguinalis", "summary_of_the_method": "as §1"}, "wheat": {"system": "wheat", "assay": "Test B pre/postemergence wheat", "assay_type": "in vivo, Triticum aestivum", "summary_of_the_method": "as §1"}, "bamyardgrass": {"system": "bamyardgrass", "assay": "Test B flood test barnyardgrass", "assay_type": "in vivo, Echinochloa crus-galli", "conditions": "for Plant response rating, Barnyardgrass: scale 0 to 10, 0 is no effect, 10 is complete control; for Barnyardgrass plant response rating: scale of 0 to 10 where 0 is no effect and 10 is complete control", "summary_of_the_method": "as §2"}, "corn": {"system": "corn", "assay": "Test B pre/postemergence corn", "assay_type": "in vivo, Zea mays", "summary_of_the_method": "as §1"}, "wild oat": {"system": "wild oat", "assay": "Test B pre/postemergence wild oat", "assay_type": "in vivo, Avena fatua", "summary_of_the_method": "as §1"}, "soybean": {"system": "soybean", "assay": "Test B pre/postemergence soybean", "assay_type": "in vivo, Glycine max", "summary_of_the_method": "as §1"}, "morningglory": {"system": "morningglory", "assay": "Test B pre/postemergence morningglory", "assay_type": "in vivo, Ipomoea hederacea", "summary_of_the_method": "as §1"}, "duck salad": {"system": "duck salad", "assay": "Test B flood test duck salad", "assay_type": "in vivo, Heteranthera limosa", "conditions": "for Plant response rating, Ducksalad: scale 0 to 10, 0 is no effect, 10 is complete control; for Ducksalad plant response rating: scale of 0 to 10 where 0 is no effect and 10 is complete control", "summary_of_the_method": "as §2"}, "velvetleaf": {"system": "velvetleaf", "assay": "Test B pre/postemergence velvetleaf", "assay_type": "in vivo, Abutilon theophrasti", "summary_of_the_method": "as §1"}, "pigweed": {"system": "pigweed", "assay": "Test B pre/postemergence pigweed", "assay_type": "in vivo, Amaranthus retroflexus", "summary_of_the_method": "as §1"}, "rape": {"system": "rape", "assay": "Test B pre/postemergence rape", "assay_type": "in vivo, Brassica napus", "summary_of_the_method": "as §1"}, "sugar beet": {"system": "sugar beet", "assay": "Test B pre/postemergence sugar beet", "assay_type": "in vivo, Beta vulgaris", "summary_of_the_method": "as §1"}, "[1]": {"conditions": "Postemergence, Rate 250 g/ha, scale 0 to 10, 0 is no effect, 10 is complete control"}, "[2]": {"conditions": "Postemergence, Rate 500 g/ha, scale of 0 to 10 where 0 is no effect and 10 is complete control"}, "[3]": {"conditions": "Preemergence, Rate 62 g/ha, scale 0 to 10 (0 no effect, 10 complete control)"}, "[4]": {"conditions": "Preemergence, Rate 125 g/ha, scale of 0 to 10 where 0 is no effect and 10 is complete control"}, "[5]": {"conditions": "Preemergence, Rate 250 g/ha, scale 0 to 10, 0 is no effect, 10 is complete control"}, "[6]": {"conditions": "Preemergence, Rate 500 g/ha, scale 0 to 10, 0 is no effect, 10 is complete control"}, "[7]": {"conditions": "Postemergence, Rate 125 g/ha, scale 0 to 10, 0 is no effect, 10 is complete control"}, "[8]": {"conditions": "Rate 62 g/ha, Postemergence, scale of 0 to 10 where 0 is no effect and 10 is complete control"}, "[9]": {"conditions": "Postemergence (flood test), Rate 125 g/ha"}, "[10]": {"conditions": "Postemergence section (flood test species), Rate 500 g/ha"}, "[11]": {"conditions": "Rate 62 g/ha, Postemergence (flood test species)"}, "[12]": {"conditions": "flood test species, listed under Postemergence, Rate 250 g/ha"}}, "data": [{"smiles": "CSCCn1c(=O)on(C(=O)N(c2ccccc2)C(C)C)c1=O", "note": "[Compound 419]", "values": [{"measurement": "Plant response rating, Nutsedge", "setting": "purple nutsedge; [1]", "result": 0}, {"measurement": "Nutsedge plant response rating", "setting": "purple nutsedge; [2]", "result": 0}, {"measurement": "Plant response rating, Nutsedge", "setting": "purple nutsedge; [3]", "result": 0}, {"measurement": "Plant response rating, Nutsedge", "setting": "purple nutsedge; [4]", "result": 0}, {"measurement": "Nutsedge plant response rating", "setting": "purple nutsedge; [5]", "result": 0}, {"measurement": "Nutsedge plant response rating", "setting": "purple nutsedge; [6]", "result": 0}, {"measurement": "Plant response rating, Giant foxtail", "setting": "giant foxtail; [7]", "result": 0}, {"measurement": "Plant response rating, Giant foxtail", "setting": "giant foxtail; [1]", "result": 1}, {"measurement": "Giant foxtail plant response rating", "setting": "giant foxtail; [2]", "result": 6}, {"measurement": "Plant response rating, Giant foxtail", "setting": "giant foxtail; [3]", "result": 0}, {"measurement": "Plant response rating, Giant foxtail", "setting": "giant foxtail; [4]", "result": 1}, {"measurement": "Giant foxtail plant response rating", "setting": "giant foxtail; [5]", "result": 2}, {"measurement": "Giant foxtail plant response rating", "setting": "giant foxtail; [6]", "result": 5}, {"measurement": "Giant foxtail plant response rating", "setting": "giant foxtail; [8]", "result": 0}, {"measurement": "Plant response rating, Cocklebur", "setting": "cocklebur; [7]", "result": 0}, {"measurement": "Plant response rating, Cocklebur", "setting": "cocklebur; [1]", "result": 0}, {"measurement": "Cocklebur plant response rating", "setting": "cocklebur; [2]", "result": 0}, {"measurement": "Plant response rating, Cocklebur", "setting": "cocklebur; [3]", "result": 0}, {"measurement": "Plant response rating, Cocklebur", "setting": "cocklebur; [4]", "result": 0}, {"measurement": "Cocklebur plant response rating", "setting": "cocklebur; [5]", "result": 0}, {"measurement": "Cocklebur plant response rating", "setting": "cocklebur; [6]", "result": 0}, {"measurement": "Cocklebur plant response rating", "setting": "cocklebur; [8]", "result": 0}, {"measurement": "Rice plant response rating", "setting": "rice; Postemergence section (flood test species), Rate 500 g/ha, scale of 0 to 10 where 0 is no effect and 10 is complete control", "result": 2}, {"measurement": "Plant response rating, Rice", "setting": "rice; flood test species, listed under Postemergence, Rate 250 g/ha, scale 0 to 10, 0 is no effect, 10 is complete control", "result": 0}, {"measurement": "Plant response rating, Crabgrass", "setting": "crabgrass; [7]", "result": 0}, {"measurement": "Plant response rating, Crabgrass", "setting": "crabgrass; [1]", "result": 0}, {"measurement": "Crabgrass plant response rating", "setting": "crabgrass; [2]", "result": 1}, {"measurement": "Plant response rating, Crabgrass", "setting": "crabgrass; [3]", "result": 0}, {"measurement": "Plant response rating, Crabgrass", "setting": "crabgrass; [4]", "result": 1}, {"measurement": "Crabgrass plant response rating", "setting": "crabgrass; [5]", "result": 4}, {"measurement": "Crabgrass plant response rating", "setting": "crabgrass; [6]", "result": 9}, {"measurement": "Crabgrass plant response rating", "setting": "crabgrass; [8]", "result": 0}, {"measurement": "Wheat plant response rating", "setting": "wheat; [2]", "result": 0}, {"measurement": "Plant response rating, Wheat", "setting": "wheat; [3]", "result": 0}, {"measurement": "Plant response rating, Wheat", "setting": "wheat; [4]", "result": 0}, {"measurement": "Wheat plant response rating", "setting": "wheat; [5]", "result": 0}, {"measurement": "Wheat plant response rating", "setting": "wheat; [6]", "result": 0}, {"measurement": "Plant response rating, Barnyardgrass", "setting": "bamyardgrass; [9]", "result": 0}, {"measurement": "Barnyardgrass plant response rating", "setting": "bamyardgrass; [10]", "result": 0}, {"measurement": "Barnyardgrass plant response rating", "setting": "bamyardgrass; [11]", "result": 0}, {"measurement": "Plant response rating, Barnyardgrass", "setting": "bamyardgrass; [12]", "result": 0}, {"measurement": "Plant response rating, Corn", "setting": "corn; [7]", "result": 0}, {"measurement": "Plant response rating, Corn", "setting": "corn; [1]", "result": 0}, {"measurement": "Corn plant response rating", "setting": "corn; [2]", "result": 0}, {"measurement": "Plant response rating, Corn", "setting": "corn; [3]", "result": 0}, {"measurement": "Plant response rating, Corn", "setting": "corn; [4]", "result": 0}, {"measurement": "Corn plant response rating", "setting": "corn; [5]", "result": 0}, {"measurement": "Corn plant response rating", "setting": "corn; [6]", "result": 0}, {"measurement": "Corn plant response rating", "setting": "corn; [8]", "result": 0}, {"measurement": "Wild oats plant response rating", "setting": "wild oat; [2]", "result": 0}, {"measurement": "Plant response rating, Wild oats", "setting": "wild oat; [3]", "result": 0}, {"measurement": "Plant response rating, Wild oats", "setting": "wild oat; [4]", "result": 0}, {"measurement": "Wild oats plant response rating", "setting": "wild oat; [5]", "result": 0}, {"measurement": "Wild oats plant response rating", "setting": "wild oat; [6]", "result": 2}, {"measurement": "Plant response rating, Soybean", "setting": "soybean; [1]", "result": 3}, {"measurement": "Soybean plant response rating", "setting": "soybean; [2]", "result": 3}, {"measurement": "Plant response rating, Soybean", "setting": "soybean; [3]", "result": 0}, {"measurement": "Plant response rating, Soybean", "setting": "soybean; [4]", "result": 0}, {"measurement": "Soybean plant response rating", "setting": "soybean; [5]", "result": 0}, {"measurement": "Soybean plant response rating", "setting": "soybean; [6]", "result": 0}, {"measurement": "Plant response rating, Morningglory", "setting": "morningglory; [1]", "result": 5}, {"measurement": "Morningglory plant response rating", "setting": "morningglory; [2]", "result": 5}, {"measurement": "Plant response rating, Morningglory", "setting": "morningglory; [3]", "result": 0}, {"measurement": "Plant response rating, Morningglory", "setting": "morningglory; [4]", "result": 0}, {"measurement": "Morningglory plant response rating", "setting": "morningglory; [5]", "result": 1}, {"measurement": "Morningglory plant response rating", "setting": "morningglory; [6]", "result": 2}, {"measurement": "Plant response rating, Ducksalad", "setting": "duck salad; [9]", "result": 0}, {"measurement": "Ducksalad plant response rating", "setting": "duck salad; [10]", "result": 0}, {"measurement": "Ducksalad plant response rating", "setting": "duck salad; [11]", "result": 0}, {"measurement": "Plant response rating, Ducksalad", "setting": "duck salad; [12]", "result": 0}, {"measurement": "Plant response rating, Velvetleaf", "setting": "velvetleaf; [1]", "result": 0}, {"measurement": "Velvetleaf plant response rating", "setting": "velvetleaf; [2]", "result": 2}, {"measurement": "Plant response rating, Velvetleaf", "setting": "velvetleaf; [3]", "result": 0}, {"measurement": "Plant response rating, Velvetleaf", "setting": "velvetleaf; [4]", "result": 0}, {"measurement": "Velvetleaf plant response rating", "setting": "velvetleaf; [5]", "result": 1}, {"measurement": "Velvetleaf plant response rating", "setting": "velvetleaf; [6]", "result": 4}, {"measurement": "Plant response rating, Redroot pigweed", "setting": "pigweed; [1]", "result": 0}, {"measurement": "Redroot pigweed plant response rating", "setting": "pigweed; [2]", "result": 0}, {"measurement": "Plant response rating, Redroot pigweed", "setting": "pigweed; [3]", "result": 0}, {"measurement": "Plant response rating, Redroot pigweed", "setting": "pigweed; [4]", "result": 0}, {"measurement": "Redroot pigweed plant response rating", "setting": "pigweed; [5]", "result": 6}, {"measurement": "Redroot pigweed plant response rating", "setting": "pigweed; [6]", "result": 10}, {"measurement": "Plant response rating, Rape", "setting": "rape; [1]", "result": 0}, {"measurement": "Rape plant response rating", "setting": "rape; [2]", "result": 0}, {"measurement": "Plant response rating, Rape", "setting": "rape; [3]", "result": 0}, {"measurement": "Plant response rating, Rape", "setting": "rape; [4]", "result": 0}, {"measurement": "Rape plant response rating", "setting": "rape; [5]", "result": 2}, {"measurement": "Rape plant response rating", "setting": "rape; [6]", "result": 2}, {"measurement": "Plant response rating, Sugarbeets", "setting": "sugar beet; [1]", "result": 0}, {"measurement": "Sugarbeets plant response rating", "setting": "sugar beet; [2]", "result": 0}, {"measurement": "Plant response rating, Sugarbeets", "setting": "sugar beet; [3]", "result": 0}, {"measurement": "Plant response rating, Sugarbeets", "setting": "sugar beet; [4]", "result": 0}, {"measurement": "Sugarbeets plant response rating", "setting": "sugar beet; [5]", "result": 3}, {"measurement": "Sugarbeets plant response rating", "setting": "sugar beet; [6]", "result": 5}]}]}
